# Experimental data published in publication PMC12564180 (International Journal of Molecular Sciences, 2025).
# Columns and labels:
# CYP1A1 = target: T1, CYP1A1 (Homo sapiens, UniProt P04798); assay: Incubation of filapixant with human recombinant CYP1A1 (Supersomes); assay type: in vitro ADME; conditions: 1 µM [3H]filapixant, CYP1A1, 60 min
# T1 construct: purchased
# T1 sequence (P04798 1-512): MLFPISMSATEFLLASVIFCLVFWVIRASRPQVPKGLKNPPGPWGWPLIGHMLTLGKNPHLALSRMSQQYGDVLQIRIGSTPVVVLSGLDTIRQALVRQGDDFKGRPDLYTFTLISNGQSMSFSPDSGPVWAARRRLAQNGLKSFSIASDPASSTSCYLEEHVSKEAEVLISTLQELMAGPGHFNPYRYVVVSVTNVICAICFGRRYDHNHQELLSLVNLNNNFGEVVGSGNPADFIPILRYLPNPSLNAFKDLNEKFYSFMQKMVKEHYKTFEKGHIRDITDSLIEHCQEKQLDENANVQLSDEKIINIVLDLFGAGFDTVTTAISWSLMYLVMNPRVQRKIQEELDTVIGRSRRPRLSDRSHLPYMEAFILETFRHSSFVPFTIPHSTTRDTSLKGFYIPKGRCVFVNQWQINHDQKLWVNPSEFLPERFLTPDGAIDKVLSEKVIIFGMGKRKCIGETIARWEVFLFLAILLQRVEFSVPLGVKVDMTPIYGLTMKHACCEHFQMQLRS
# CYP3A4 [1] = target: T2, CYP3A4 (Homo sapiens, UniProt P08684); assay: Incubation of filapixant with human recombinant CYP3A4 (Supersomes); assay type: in vitro ADME
# T2 construct: purchased
# CYP3A5 = target: T3, CYP3A5 (Homo sapiens, UniProt P20815); assay: Incubation of [3H]filapixant with human recombinant CYP3A5 (Supersomes); assay type: in vitro ADME; conditions: 1 µM [3H]filapixant, CYP3A5, 60 min
# T3 construct: purchased
# [2] = Biotransformation and enzyme kinetics of filapixant in human liver microsomes; assay type: in vitro ADME; conditions: [3H]filapixant 1 µM, pooled human liver microsomes, 1 h of incubation, n = 1
# Experimental: (§1) The incubations were analyzed by high-performance liquid chromatography (HPLC) with tandem mass spectroscopy (MS/MS) followed by off-line radioactivity detection to generate metabolite profiles and elucidate or confirm the structures of the metabolites formed.
# [3] = Biotransformation of [3H]filapixant in human hepatocytes; assay type: in vitro ADME; conditions: [3H]filapixant 1 µM, 4 h of incubation, range in three batches
# Experimental: as §1
# [4] = Biotransformation and enzyme kinetics of filapixant in human liver microsomes; assay type: in vitro ADME
# [5] = Incubation of 1 µM [3H]filapixant in human liver microsomes with CYP isoform-selective inhibitors; assay type: in vitro ADME
# [6] = Depletion of 1 µM filapixant in human hepatocytes in absence and presence of CYP3A4 selective and pan-CYP inhibitors; assay type: in vitro ADME; conditions: 1 µM filapixant, in presence of the inhibitor
# CYP3A4 [7] = assay: as above; assay type: in vitro ADME; conditions: human, probe filapixant (1 µM, non-labeled), read-out: % of control CLint inhibited
# pan-CYP = assay: as above; assay type: in vitro ADME; conditions: human, probe filapixant (1 µM, non-labeled), read-out: % of control CLint inhibited
# [8] = patients; cited from earlier work
# [9] = Clinical drug-drug interaction study filapixant with itraconazole: pharmacokinetics; assay type: in vivo, human; conditions: plasma, study day 4, itraconazole 200 mg once daily oral solution
# Experimental: Spontaneous reported adverse events were recorded as well adverse events that were reported after open-ended and non-leading verbal questioning of the participants to avoid bias. In addition, itraconazole concentrations were measured in plasma at selected time points to confirm that relevant inhibitory plasma levels were achieved.
# The study was conducted in a single-center, open-label, fixed sequence design with two periods.
# PK parameters were calculated by a non-compartmental analysis using the program WinNonlin version 5.3 (Pharsight Corporation, St. Louis, MO, USA), with the Automation Extension (version 2.90, Bayer Pharma AG, Wuppertal, Germany). The statistical evaluation was performed by using the software package SAS release 9.2 (SAS Institute Inc., Cary, NC, USA). All analyses were exploratory. Therefore, no multiplicity adjustments were performed.
# The main PK metrics AUC and Cmax were statistically analyzed, assuming log-normally distributed data. Mean differences between treatments (and their standard error) were determined for logarithmized PK metrics. A total of 90% CIs for treatment differences were determined as well, applying standard methodology for log-normally distributed data. […] Only participants providing a valid PK profile from both study periods were to be included in the primary analysis.
# T2 sequence (P08684 whole entry): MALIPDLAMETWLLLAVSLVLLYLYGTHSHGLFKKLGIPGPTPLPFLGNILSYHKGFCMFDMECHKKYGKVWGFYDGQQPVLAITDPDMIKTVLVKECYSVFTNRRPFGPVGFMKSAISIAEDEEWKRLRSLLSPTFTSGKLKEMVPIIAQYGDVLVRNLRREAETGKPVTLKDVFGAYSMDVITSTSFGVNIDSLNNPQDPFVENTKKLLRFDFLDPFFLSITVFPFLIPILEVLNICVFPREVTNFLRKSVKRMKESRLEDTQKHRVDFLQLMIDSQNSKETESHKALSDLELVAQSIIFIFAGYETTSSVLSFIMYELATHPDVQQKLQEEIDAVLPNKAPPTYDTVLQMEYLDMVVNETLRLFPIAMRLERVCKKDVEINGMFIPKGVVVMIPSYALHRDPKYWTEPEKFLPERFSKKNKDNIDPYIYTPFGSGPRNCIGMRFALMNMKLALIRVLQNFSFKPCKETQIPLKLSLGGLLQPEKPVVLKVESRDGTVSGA
# T3 sequence (P20815 whole entry): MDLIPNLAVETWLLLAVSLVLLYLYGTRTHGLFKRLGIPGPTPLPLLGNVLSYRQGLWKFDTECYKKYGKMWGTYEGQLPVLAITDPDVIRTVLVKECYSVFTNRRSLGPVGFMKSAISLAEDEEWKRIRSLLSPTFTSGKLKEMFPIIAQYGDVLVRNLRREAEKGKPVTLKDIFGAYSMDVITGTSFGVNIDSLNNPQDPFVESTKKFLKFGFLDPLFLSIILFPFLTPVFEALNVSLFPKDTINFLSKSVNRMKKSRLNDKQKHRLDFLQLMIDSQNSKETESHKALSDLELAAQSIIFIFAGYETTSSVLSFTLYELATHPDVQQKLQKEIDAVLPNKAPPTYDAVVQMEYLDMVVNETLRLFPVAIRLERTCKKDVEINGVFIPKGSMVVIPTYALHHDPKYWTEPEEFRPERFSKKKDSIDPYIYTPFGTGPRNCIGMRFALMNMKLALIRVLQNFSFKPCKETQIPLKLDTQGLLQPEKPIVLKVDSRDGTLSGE
smiles,measurement,setting,value
Cc1cnc(-c2cc(OC[C@H]3CN(C)C(=O)CO3)cc(C(=O)N[C@H](C)c3cnc(C(F)(F)F)nc3)c2)s1 [M-4],"Remaining drug and formation of metabolites, Peak Area",CYP1A1,6.5 % of Radioactivity
same,"Remaining drug and formation of metabolites, Peak Area","CYP3A4 [1]; 1 µM [3H]filapixant, CYP3A4, 60 min",6.1 % of Radioactivity
same,Vmax of metabolite formation,"CYP3A4 [1]; filapixant in recombinant human CYP3A4 (25 pmol/mL), 20 min incubation",9.20E+03 peak area/pmol CYP/min
same,"Vmax of metabolite formation (Michaelis-Menten plot, Figure S7)","CYP3A4 [1]; recombinant CYP3A4 25 pmol/mL, 20 min, rate axis: area metabolite/min/mg",9202.
same,"Remaining drug and formation of metabolites, Peak Area",CYP3A5,1.5 % of Radioactivity
same,"Recovery of filapixant and metabolite formation, Liver Microsomes",[2],7.6 % of radioactivity
same,"Recovery of filapixant and metabolite formation, Hepatocytes",[3],1.0–7.5 % of radioactivity
same,Vmax of metabolite formation,"[4]; filapixant in human liver microsomes (0.5 mg/mL), 30 min incubation",1.02E+04 peak area/pmol CYP/min
same,"Vmax of metabolite formation (Michaelis-Menten plot, Figure S8)","[4]; human liver microsomes 0.5 mg/mL, 30 min, rate axis: area metabolite/min/mg",1.021e+4
same,Km at 30 min,"[4]; human, human liver microsomes, probe filapixant (substrate), read-out: Km,app of metabolite formation",7.9 µM
"COCC(=O)O[C@]1(CCN(C)CCCc2nc3ccccc3[nH]2)CCc2cc(F)ccc2[C@@H]1C(C)C [Mibefradil, mibefradil]",Effect of inhibitor on drug depletion of [3H]filapixant and formation of metabolites,[5],inhibited
same,Reduction of apparent CLint of filapixant compared to untreated control,[6],90 to 95%
same,inhibition at 2 µM,CYP3A4 [7],95.6%
CC[C@]1(C)C[C@@H](OC(=O)CSc2nnc(N)[nH]2)[C@]2(C)[C@H](C)CC[C@]3(CCC(=O)[C@H]32)[C@@H](C)[C@@H]1O [azamulin],Effect of inhibitor on drug depletion of [3H]filapixant and formation of metabolites,[5],inhibited
"Nn1nnc2ccccc21 [ABT, 1-Aminobenzotriazol]",Reduction of apparent CLint of filapixant compared to untreated control,[6],90 to 95%
same,inhibition at 1000 µM,pan-CYP,94.5%
COc1cc(C(C)C)c(Oc2cnc(N)nc2N)cc1S(N)(=O)=O [gefapixant],Frequency of taste disturbances / taste-related side effects,[8],high frequency
"CCC(C)n1ncn(-c2ccc(N3CCN(c4ccc(OCC5COC(Cn6cncn6)(c6ccc(Cl)cc6Cl)O5)cc4)CC3)cc2)c1=O (stereo not shown) [Itraconazole, itraconazole]",Effect of inhibitor on drug depletion of [3H]filapixant and formation of metabolites,[5],inhibited
same,Reduction of apparent CLint of filapixant compared to untreated control,[6],90 to 95%
same,inhibition at 2 µM,CYP3A4 [7],94.4%
same,Mean maximum concentrations of itraconazole,[9],1014.6 µg/L
Cc1cnc(-c2cc(O[C@@H]3CCOC3)cc(C(=O)N[C@H](C)c3cnc(C(F)(F)F)nc3)c2)s1 [eliapixant],Frequency of taste disturbances / taste-related side effects,[8],considerably reduced compared to gefapixant
